Data: EP0286926A2, “Semi-synthetic rhodomycins, method for their preparation and their use as cytostatics” (BEHRINGWERKE Aktiengesellschaft, priority 1987, dated 1988)
In brackets after ≈: the same amount, converted by molar mass. Like-named read-outs stand apart in the source and are kept apart here.

Tested on: L1210 Leukämiezellen
Assay: Colony formation of L1210 leukemia cells in soft agar
Assay type: cell-based, Maus
Details: for IC50: Mus musculus
Description: Die zytostatische Wirksamkeit der erfindungsgemäßen Verbindungen wurde anhand von L1210 Leukämiezellen der Maus getestet. Hierzu wurde die Koloniebildung von L1210 Leukämiezellen in Agarplatten herangezogen. Diese Methode dient zum Nachweis des Einflusses der Testsubstanzen auf das Wachstumsverhalten der Zellen nach Inkubation von 1 Stunde oder über mehrere Generationen. Bei einer Zelzykluszeit von 10-12 Stunden werden dabei in der Testzeit von 7 Tagen etwa 14 aufeinanderfolgende Generationen beobachtet. Die erfindungsgemäßen zytostatisch wirksamen Substanzen bewirken in diesem Test eine Reduktion der zu beobachtenden Koloniezahl gegenüber einer unbehandelten Kontrollprobe.
Einzelheiten des Testverfahrens ergeben sich aus der nachfolgenden Verfahrensweise zur Ermittlung der Koloniebildung.
Verfahrensweise zur Ermittlung der Koloniebildung von L1210 Leukämiezellen in Soft-Agar
500 Leukämiezellen pro Platte wurden mit unterschiedlichen Konzentrationen der Testsubstanz 1 Stunde bei 37°C inkubiert. Anschließend wurden die Zellen zweimal mit McCoy5A-Medium gewaschen und schließlich in Petrischalen nach Zugabe von 0,3 % Agar ausgegossen. Kontrollen wurden lediglich mit frischem Medium inkubiert. Anstelle der einstündigen Inkubation wurden in manchen Fällen unterschiedliche Konzentrationen und Testsubstanzen der oberen Agarschicht zugemischt, um so eine kontinuierliche Exposition der Zellen über die gesamte Inkubationszeit zu erreichen. Nach Erstarren des Agars wurden die Platten im Brutschrank 7 Tage bei 37°C inkubiert (5 Vol.-% CO₂, 94 % relative Luftfeuchtigkeit). Anschließend wurde die Zahl der entstandenen Kolonien mit einem Durchmesser von mehr als 60 µm gezählt. Die Ergebnisse wurden angegeben als Koloniezahl in behandelten Agarplatten in Prozent der unbehandelten Kontrolle. Aus der so erhaltenen Dosiswirkungskruve wurde die IC₅₀ als Maß für die Wirksamkeit der Substanz ermittelt. Die Ergebnisse für die hier beschriebenen Verbindungen im Vergleich zu Adriamycin sind in der nachfolgenden Tabelle 1 zusammengefaßt.

[1] = L1210, 168 h, continuous exposure: substance mixed into upper agar layer for the whole 7-day incubation at 37°C, colonies > 60 µm counted, percent of untreated control, read-out: Dauerinkubation IC50
[2] = L1210, 1 h incubation with substance at 37°C, cells washed twice, then plated in 0,3 % agar for 7 days, colonies > 60 µm counted, read-out: 1h-Inkubation IC50
[3] = L1210, 168 h, read-out: Dauerinkubation IC50
[4] = L1210, read-out: 1h-Inkubation IC50
[5] = 1 h incubation with substance at 37°C, cells washed twice, then plated in 0,3 % agar for 7 days, colonies > 60 µm counted
[6] = continuous exposure: substance mixed into upper agar layer for the whole 7-day incubation at 37°C, colonies > 60 µm counted, percent of untreated control

Structure (SMILES)	IC50 [1] [µg/mL]	IC50 [2] [µg/mL]	further results
CC[C@@]1(O)C[C@H](O[C@H]2C[C@H](NC(=O)C(F)(F)F)[C@H](OC(=O)c3ccc([N+](=O)[O-])cc3)[C@H](C)O2)c2c(O)c3c(c(O)c2[C@H]1OC(=O)C(F)(F)F)C(=O)c1cccc(O)c1C3=O [Beispiel 18, 7-O-(4-O-Paranitrobenzoyl-3-N-trifluoracetyl-α-L-daunosaminyl)-10-O-trifluoracetyl-β-rhodomycinon]	0.13 (≈ 0.152 µM)	> 1	–
CC[C@@]1(O)C[C@H](O)c2c(O)c3c(c(O)c2[C@H]1O[C@H]1C[C@H](N(C)C)[C@@H](O)[C@H](C)O1)C(=O)c1cccc(O)c1C3=O [Beispiel 12, 10-0-(3-N,N-Dimethyl-α-L-acosaminyl)-β-rhodomycinon]	0.5 (≈ 0.92 µM)	> 1	–
CC[C@@]1(O)C[C@H](O[C@H]2C[C@@H](N)[C@@H](O)[C@H](C)O2)c2c(O)c3c(c(O)c2[C@H]1O)C(=O)c1cccc(O)c1C3=O [Beispiel 46, 7-O-α-L-Ristosaminyl-β-rhodomycinon]	–	0.11 (≈ 0.213 µM)	–
CC[C@@]1(O)C[C@H](O[C@H]2C[C@H](NC(=O)C(F)(F)F)[C@@H](OC(=O)c3ccc([N+](=O)[O-])cc3)[C@H](C)O2)c2c(O)c3c(c(O)c2[C@H]1O)C(=O)c1cccc(O)c1C3=O [Beispiel 14, 7-0-(4-0-Paranitrobenzoyl-3-N-trifluoracetyl-α-L-acosaminyl)-β-rhodomycinon]	0.024 (≈ 0.0316 µM)	> 1	–
CC[C@@]1(O)C[C@H](O[C@H]2C[C@H](NCC#N)[C@H](O)[C@H](C)O2)c2c(O)c3c(c(O)c2[C@H]1O)C(=O)c1cccc(O)c1C3=O [Beispiel 17, 7-O-(3-N-Cyanomethyl-α-L-daunosaminyl)-β-rhodomycinon]	–	–	IC50 [3]: 0.004 µg/mL (≈ 0.00721 µM); IC50 [4]: 0.09 µg/mL (≈ 0.162 µM)
CC[C@@]1(O)C[C@H](O)c2c(O)c3c(c(O)c2[C@H]1O[C@H]1C[C@H](N)[C@@H](O)[C@H](C)O1)C(=O)c1cccc(O)c1C3=O [Beispiel 10, 10-0-α-L-Acosaminyl-β-rhodomycinon]	0.9 (≈ 1.75 µM)	6.5 (≈ 12.6 µM)	–
CC[C@@]1(O)C[C@H](O)c2c(O)c3c(c(O)c2[C@H]1O[C@H]1C[C@H](NC(=O)C(F)(F)F)[C@H](OC(=O)c2ccc([N+](=O)[O-])cc2)[C@H](C)O1)C(=O)c1cccc(O)c1C3=O [Beispiel 9, 10-0-(4-0-Paranitrobenzoyl-3-N-trifluoracetyl-α-L-daunosaminyl)-β-rhodomycinon]	0.6 (≈ 0.789 µM)	> 10	–
CC[C@@]1(O)C[C@H](O[C@H]2C[C@H](N(C)C)[C@@H](O)[C@H](C)O2)c2c(O)c3c(c(O)c2[C@H]1O)C(=O)c1cccc(O)c1C3=O [Beispiel 16, 7-0-(3-N,N-Dimethyl-α-L-acosaminyl)-β-rhodomycinon]	–	–	IC50 [3]: 0.006 µg/mL (≈ 0.011 µM); IC50 [4]: 0.02 µg/mL (≈ 0.0368 µM); zytostatische Wirksamkeit (statement in words, compared with Adriamycin): vergleichbar
CC[C@@]1(O)C[C@H](O[C@H]2C[C@H](NC(=O)C(F)(F)F)C[C@H](C)O2)c2c(O)c3c(c(O)c2[C@H]1O)C(=O)c1cccc(O)c1C3=O [Beispiel 52, 7-O-(4-Desoxy-3-N-trifluoracetyl-α-L-daunosaminyl)-β-rhodomycinon]	–	0.66 (≈ 1.11 µM)	–
CC[C@@]1(O)C[C@H](O[C@H]2C[C@H](NCC#N)[C@H](O)[C@H](C)O2)c2c(O)c3c(c(O)c2[C@H]1O[C@H]1C[C@H](NCC#N)[C@H](O)[C@H](C)O1)C(=O)c1cccc(O)c1C3=O [Beispiel 30, 7,10-O-Di-(3-N-Cyanomethyl-α-L-daunosaminyl)-β-rhodomycinon]	–	–	IC50 [3]: 0.5 µg/mL (≈ 0.692 µM); IC50 [4]: > 1 µg/mL
CC[C@@]1(O)C[C@H](O[C@@H]2O[C@@H](C)[C@@H](OC(C)=O)[C@@H](OC(C)=O)[C@H]2I)c2c(O)c3c(c(O)c2[C@H]1OC1CCCCO1)C(=O)c1cccc(O)c1C3=O (stereo partly drawn) [Beispiel 24, 7-O-(3,4-Di-O-acetyl-2,6-didesoxy-2-iodo-α-L-talopyranosyl)-10-O-tetrahydropyranyl-β-rhodomycinon]	–	–	1h-Inkubation IC50 [5]: >1 µg/mL; Dauerinkubation IC50 [6]: >1 µg/mL
CC[C@@]1(O)C[C@H](O[C@H]2C[C@H](NC(=O)C(F)(F)F)[C@H](OC(=O)c3ccc([N+](=O)[O-])cc3)[C@H](C)O2)c2c(O)c3c(c(O)c2[C@H]1O)C(=O)c1cccc(O)c1C3=O [Beispiel 19, 7-O-(4-O-Paranitrobenzoyl-3-N-trifluoracetyl-α-L-daunosaminyl)-β-rhodomycinon]	0.11 (≈ 0.145 µM)	> 1	–
CC[C@@]1(O)C[C@H](O[C@H]2C[C@H](NC(=O)C(F)(F)F)[C@H](OC(=O)c3ccc([N+](=O)[O-])cc3)[C@H](C)O2)c2c(O)c3c(c(O)c2[C@H]1O[C@@H]1C[C@H](NC(=O)C(F)(F)F)[C@H](OC(=O)c2ccc([N+](=O)[O-])cc2)[C@H](C)O1)C(=O)c1cccc(O)c1C3=O [Beispiel 27, 7,10-Di-O-(4-O-paranitrobenzoyl-3-N-trifluoracetyl-α-L-daunosaminyl)-β-rhodomycinon]	–	–	1h-Inkubation IC50 [5]: >1 µg/mL; Dauerinkubation IC50 [6]: >1 µg/mL
